Laboratory results reported in US11161846B2, “Substituted pyrazolo[4,3-b]pyridines and their use as GluN2B receptor modulators” (JANSSEN PHARMACEUTICA NV, priority 2019, dated 2021).

system: not listed separately; assay: Liver microsomal stability (extraction ratio); format: in vitro ADME; conditions: test compound 1 μM; 0.5 mg/mL liver microsomes, NADPH, 37° C.; species not given (method: mouse, rat, and human)
Description: Protocol for Liver Microsomal Stability (Extraction Ratio)
Liver Microsomal Stability.
Microsomal stability studies (Chrovian et al, “1H-Pyrrolo[3,2-b]pyridine GluN2B-Selective Negative Allosteric Modulators”. ACS Med Chem Lett. 2019 Jan. 10; 10(3):261-266) were conducted on a Biomek® FX Robotic Liquid Handling Workstation (Beckman Coulter, Brea, Calif.), which consists of a 96-channel pipette head, a 12-position workstation deck, and a plate incubator. Test compounds (1 μm) were spiked in a reaction mix consisting of 100 mM potassium phosphate buffer (pH 7.4), 3 mM MgCl2, and 0.5 mg/mL liver microsomes from mouse, rat, and human (BD Gentest). The reaction was brought to 37° C. and initiated by adding NADPH to a final concentration of 1 mM. After mixing on the plate deck, 50 μL aliquots were excised from the reaction plate at 0, 5, 10, 20, 40, and 60 min and quenched with four volumes of acetonitrile spiked with […] of the internal standard phenytoin. Quenched plates were centrifuged at 5700 rpm for 10 min at 4° C., and supernatant was diluted 1:3 in water before LC/MS/MS analysis. The compound half-lives were derived from plots of the ln of percent remaining compound over time to determine the intrinsic clearance. The predicted hepatic clearance was derived from the intrinsic clearance value using equations from the well-stirred model (Current Drug Metabolism, 2008, 9, 940-951), where no correction was made plasma protein binding and the blood to plasma concentration ratio was assumed to be one. The extraction ratio (ER) was calculated by dividing the predicted hepatic clearance by species blood flow (Q), where Q is 90, 55, and 21.7 mL/min/kg for mouse, rat and human, respectively.

Compound | Extraction Ratio @ 1 μM
CCC(=O)Cn1ncc2ncc(-c3cc(F)c(F)c(F)c3)cc21 [Example 42, 1-[6-(3,4,5-Trifluorophenyl)pyrazolo[4,3-b]pyridin-1-yl]butan-2-one] | 0.63

target: T1, human GluN1/GluN2B NMDA receptors (Homo sapiens, UniProt Q05586+Q13224); assay: Calcium flux (FLIPR) assay on cloned human NR1/GluN2B ion channels expressed in mammalian cells, standard assay; format: cell-based; conditions: glutamate ~EC40 and 10 μM glycine, stable cell line with Tet-On induced expression
T1 construct: expressed in transfected cells
T1 sequence (Q13224 27-1484, other chains not shown): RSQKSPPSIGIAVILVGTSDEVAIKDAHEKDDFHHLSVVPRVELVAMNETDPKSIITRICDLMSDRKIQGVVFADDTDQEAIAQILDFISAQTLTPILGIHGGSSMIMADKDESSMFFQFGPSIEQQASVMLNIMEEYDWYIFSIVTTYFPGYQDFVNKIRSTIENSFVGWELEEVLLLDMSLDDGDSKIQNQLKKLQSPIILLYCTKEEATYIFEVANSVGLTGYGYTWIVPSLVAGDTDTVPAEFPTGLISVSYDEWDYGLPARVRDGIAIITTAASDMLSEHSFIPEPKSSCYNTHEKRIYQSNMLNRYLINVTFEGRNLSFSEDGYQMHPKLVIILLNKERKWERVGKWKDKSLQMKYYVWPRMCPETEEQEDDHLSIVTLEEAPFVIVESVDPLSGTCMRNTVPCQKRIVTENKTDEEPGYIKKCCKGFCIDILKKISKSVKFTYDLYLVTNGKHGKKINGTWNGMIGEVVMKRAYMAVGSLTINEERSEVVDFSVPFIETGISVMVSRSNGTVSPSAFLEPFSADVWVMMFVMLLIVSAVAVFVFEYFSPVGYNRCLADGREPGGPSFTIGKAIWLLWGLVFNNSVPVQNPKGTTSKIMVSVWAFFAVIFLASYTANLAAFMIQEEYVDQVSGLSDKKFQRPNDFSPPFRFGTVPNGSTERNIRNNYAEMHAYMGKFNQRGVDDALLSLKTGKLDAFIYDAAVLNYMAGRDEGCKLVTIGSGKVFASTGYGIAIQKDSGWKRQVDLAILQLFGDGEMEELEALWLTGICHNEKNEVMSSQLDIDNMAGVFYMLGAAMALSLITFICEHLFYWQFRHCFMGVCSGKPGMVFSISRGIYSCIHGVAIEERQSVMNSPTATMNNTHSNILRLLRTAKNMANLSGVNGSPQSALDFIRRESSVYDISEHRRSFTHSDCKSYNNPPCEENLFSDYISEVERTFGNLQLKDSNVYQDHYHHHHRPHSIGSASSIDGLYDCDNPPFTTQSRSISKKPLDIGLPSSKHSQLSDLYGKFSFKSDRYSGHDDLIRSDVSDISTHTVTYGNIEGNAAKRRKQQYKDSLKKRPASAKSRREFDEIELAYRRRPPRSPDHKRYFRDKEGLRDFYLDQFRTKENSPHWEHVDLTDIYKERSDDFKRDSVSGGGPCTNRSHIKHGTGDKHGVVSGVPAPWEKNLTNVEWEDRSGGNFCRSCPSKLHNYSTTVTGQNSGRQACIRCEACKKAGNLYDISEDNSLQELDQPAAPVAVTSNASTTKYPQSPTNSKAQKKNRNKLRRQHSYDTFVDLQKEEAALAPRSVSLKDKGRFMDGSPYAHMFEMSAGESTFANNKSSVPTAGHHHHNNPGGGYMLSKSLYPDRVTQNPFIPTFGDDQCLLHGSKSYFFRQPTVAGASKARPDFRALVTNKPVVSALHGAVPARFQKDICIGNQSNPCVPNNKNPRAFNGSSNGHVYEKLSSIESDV
How it was run: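 Tet-On-induced stable mammalian line loaded with Calcium 5 dye (0.5 mM MgCl2 loading buffer), then assayed in pH 7.4 buffer with 137 mM NaCl, 4 mM KCl, 2 mM CaCl2. Compound was added for 5 min, then glutamate (~EC40) plus 10 µM glycine for 5 min. FLIPR fluorescence was normalized to control wells.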

Compound | IC50
CCC(=O)Cn1ncc2ncc(-c3cc(F)c(F)c(F)c3)cc21 [Example 42, 1-[6-(3,4,5-Trifluorophenyl)pyrazolo[4,3-b]pyridin-1-yl]butan-2-one] | 27 nM
O=C(Cn1ncc2ncc(-c3ccc(Cl)c(C(F)(F)F)c3)cc21)C1CC1 [Example 75, 2-[6-[4-Chloro-3-(trifluoromethyl)phenyl]pyrazolo[4,3-b]pyridin-1-yl]-1-cyclopropyl-ethanone] | 76 nM
CN1C[C@H](Cn2ncc3ncc(-c4ccc(F)c(C(F)F)c4)cc32)OC1=O [Example 129] | 30 nM
CCC(=O)Cn1ncc2ncc(-c3ccc(F)c(OC(F)F)c3)cc21 [Example 40, 1-[6-[3-(Difluoromethoxy)-4-fluoro-phenyl]pyrazolo[4,3-b]pyridin-1-yl]butan-2-one] | 11 nM
CN1CC(Cn2ncc3ncc(-c4ccc(F)c(C(F)F)c4)cc32)CC1=O (racemic) [Example 120, (RS)-4-[[6-[3-(Difluoromethyl)-4-fluoro-phenyl]pyrazolo[4,3-b]pyridin-1-yl]methyl]-1-methyl-pyrrolidin-2-one] | 89 nM
O=C(Cn1ncc2ncc(-c3ccc(F)c(C(F)F)c3)cc21)c1cnccn1 [Example 142, 2-(6-(3-(Difluoromethyl)-4-fluorophenyl)-1H-pyrazolo[4,3-b]pyridin-1-yl)-1-(pyrazin-2-yl)ethan-1-one] | 74 nM
O=C(Cn1ncc2ncc(-c3ccc(F)c(C(F)F)c3)cc21)c1ccncc1 [Example 139, 2-[6-[3-(Difluoromethyl)-4-fluoro-phenyl]pyrazolo[4,3-b]pyridin-1-yl]-1-(4-pyridyl)ethanone] | 118 nM
O=C1NCC(Cn2ncc3ncc(-c4ccc(F)c(OC(F)F)c4)cc32)O1 (racemic) [Example 125, (RS)-5-[[6-[3-(Difluoromethoxy)-4-fluoro-phenyl]pyrazolo[4,3-b]pyridin-1-yl]methyl]oxazolidin-2-one] | 498 nM
CC[S+]([O-])Cn1ncc2ncc(-c3cccc(F)c3)cc21 (racemic) [Example 80, (RS)-1-(Ethylsulfinylmethyl)-6-(3-fluorophenyl)pyrazolo[4,3-b]pyridine] | 823 nM
CCN1C[C@@H](Cn2ncc3ncc(-c4ccc(F)c(C(F)F)c4)cc32)OC1=O [Example 132, (S)-5-[[6-[3-(Difluoromethyl)-4-fluoro-phenyl]pyrazolo[4,3-b]pyridin-1-yl]methyl]-3-ethyl-oxazolidin-2-one] | 1430 nM
O=C(Cn1ncc2ncc(-c3ccc(F)c(F)c3F)cc21)C1CC1 [Example 79, 1-Cyclopropyl-2-[6-(2,3,4-trifluorophenyl)pyrazolo[4,3-b]pyridin-1-yl]ethanone] | 30 nM
CN1C[C@@H](Cn2ncc3ncc(-c4ccc(F)c(C(F)F)c4)cc32)CC1=O [Example 121, (S)-4-[[6-[3-(Difluoromethyl)-4-fluoro-phenyl]pyrazolo[4,3-b]pyridin-1-yl]methyl]-1-methyl-pyrrolidin-2-one] | 685 nM
Cc1cccc(-c2cnc3cnn(CC(=O)C4CC4)c3c2)c1F [Example 71, 1-Cyclopropyl-2-[6-(2-fluoro-3-methyl-phenyl)pyrazolo[4,3-b]pyridin-1-yl]ethanone] | 7 nM
CCC(=O)Cn1ncc2ncc(-c3cc(F)cc(F)c3)cc21 [Example 1, 1-[6-(3,5-Difluorophenyl)pyrazolo[4,3-b]pyridin-1-yl]butan-2-one] | 19 nM
COCCC(O)Cn1ncc2ncc(-c3cccc(C(F)(F)F)c3)cc21 (racemic) [Example 90, (RS)-4-Methoxy-1-[6-[3-(trifluoromethyl)phenyl]pyrazolo[4,3-b]pyridin-1-yl]butan-2-ol] | 1420 nM
CC[S+]([O-])Cn1ncc2ncc(-c3ccc(F)c(OC(F)F)c3)cc21 (racemic) [Example 12, (RS)-6-[3-(Difluoromethoxy)-4-fluoro-phenyl]-1-(ethylsulfinylmethyl)pyrazolo[4,3-b]pyridine] | 146 nM
O=C(Cn1ncc2ncc(-c3cccc(F)c3)cc21)C1CC1 [Example 57, 1-Cyclopropyl-2-[6-(3-fluorophenyl)pyrazolo[4,3-b]pyridin-1-yl]ethanone] | 26 nM
CC(C)C(O)Cn1ncc2ncc(-c3cc(F)c(F)c(F)c3)cc21 (racemic) [Example 97, (RS)-3-Methyl-1-[6-(3,4,5-trifluorophenyl)pyrazolo[4,3-b]pyridin-1-yl]butan-2-ol] | 591 nM
O=C(Cn1ncc2ncc(-c3ccc(F)c(F)c3)cc21)C1CC1 [Example 65, 1-Cyclopropyl-2-[6-(3,4-difluorophenyl)pyrazolo[4,3-b]pyridin-1-yl]ethanone] | 13 nM
O=C(Cn1ncc2ncc(-c3cc(F)cc(F)c3)cc21)C1CC1 [Example 66, 1-Cyclopropyl-2-[6-(3,5-difluorophenyl)pyrazolo[4,3-b]pyridin-1-yl]ethanone] | 19 nM
CC(C)C(=O)Cn1ncc2ncc(-c3cccc(F)c3)cc21 [Example 46, 1-[6-(3-Fluorophenyl)pyrazolo[4,3-b]pyridin-1-yl]-3-methyl-butan-2-one] | 30 nM

Second part, the compound after the results:

IC50 | Compound
30 nM | O=C(Cn1ncc2ncc(-c3cc(F)c(F)c(F)c3)cc21)C1CC1 [Example 9, 1-Cyclopropyl-2-[6-(3,4,5-trifluorophenyl)pyrazolo[4,3-b]pyridin-1-yl]ethanone]
28 nM | CCC(=O)Cn1ncc2ncc(-c3cccc(F)c3)cc21 [Example 29, 1-[6-(3-Fluorophenyl)pyrazolo[4,3-b]pyridin-1-yl]butan-2-one]
736 nM | CC[S+]([O-])Cn1ncc2ncc(-c3cc(F)c(F)c(F)c3)cc21 (racemic) [Example 88, (RS)-1-(Ethylsulfinylmethyl)-6-(3,4,5-trifluorophenyl)pyrazolo[4,3-b]pyridine]
415 nM | CCC(O)Cn1ncc2ncc(-c3ccc(Cl)c(OC(F)F)c3)cc21 (racemic) [Example 93, (RS)-1-[6-[4-Chloro-3-(difluoromethoxy)phenyl]pyrazolo[4,3-b]pyridin-1-yl]butan-2-ol]
37 nM | O=C(Cn1ncc2ncc(-c3cccc(F)c3F)cc21)C1CC1 [Example 64, 1-Cyclopropyl-2-[6-(2,3-difluorophenyl)pyrazolo[4,3-b]pyridin-1-yl]ethanone]
409 nM | O=C(Cn1ncc2ncc(-c3ccc(F)c(C(F)F)c3)cc21)c1ncc(F)cc1F [Example 141, 2-(6-(3-(Difluoromethyl)-4-fluorophenyl)-1H-pyrazolo[4,3-b]pyridin-1-yl)-1-(3,5-difluoropyridin-2-yl)ethan-1-one]
> 3000 nM | CN1C(=O)CCC1Cn1ncc2ncc(-c3ccc(F)c(OC(F)F)c3)cc21 (racemic) [Example 114, (RS)-5-((6-(3-(Difluoromethoxy)-4-fluorophenyl)-1H-pyrazolo[4,3-b]pyridin-1-yl)methyl)-1-methylpyrrolidin-2-one]
199 nM | Cc1cc(F)ccc1-c1cnc2cnn(CC(=O)C3CC3)c2c1 [Example 72, 1-Cyclopropyl-2-[6-(4-fluoro-2-methyl-phenyl)pyrazolo[4,3-b]pyridin-1-yl]ethanone]
478 nM | CN1C[C@@H](Cn2ncc3ncc(-c4ccc(F)c(C(F)F)c4)cc32)OC1=O [Example 130, (5S)-5-[[6-[3-(Difluoromethyl)-4-fluoro-phenyl]pyrazolo[4,3-b]pyridin-1-yl]methyl]-3-methyl-oxazolidin-2-one]
754 nM | COCCn1ncc2ncc(-c3ccc(F)c(C)c3)cc21 [Example 89, 6-(4-Fluoro-3-methyl-phenyl)-1-(2-methoxyethyl)pyrazolo[4,3-b]pyridine]
17 nM | CCC(=O)Cn1ncc2ncc(-c3ccc(F)c(F)c3)cc21 [Example 34, 1-[6-(3,4-Difluorophenyl)pyrazolo[4,3-b]pyridin-1-yl]butan-2-one]
28 nM | CCC(=O)Cn1ncc2ncc(-c3ccc(F)c(F)c3F)cc21 [Example 43, 1-[6-(2,3,4-Trifluorophenyl)pyrazolo[4,3-b]pyridin-1-yl]butan-2-one]
5250 nM | CON=C(Cn1ncc2ncc(-c3cccc(C(F)(F)F)c3)cc21)C(C)C (mixture of isomers) [Example 105, (E/Z)-N-Methoxy-3-methyl-1-[6-[3-(trifluoromethyl)phenyl]pyrazolo[4,3-b]pyridin-1-yl]butan-2-imine]
90 nM | Cc1cc(F)ccc1-c1cnc2cnn(CC(=O)C(C)C)c2c1 [Example 52, 1-[6-(4-Fluoro-2-methyl-phenyl)pyrazolo[4,3-b]pyridin-1-yl]-3-methyl-butan-2-one]
89 nM | CC(C)C(=O)Cn1ncc2ncc(-c3ccccc3)cc21 [Example 44, 3-Methyl-1-(6-phenylpyrazolo[4,3-b]pyridin-1-yl)butan-2-one]
